Measurements taken from US20230092679A1, “MCL-1 INHIBITOR ANTIBODY-DRUG CONJUGATES AND METHODS OF USE” (NOVARTIS AG, priority 2019, published 2023).

Tests used:
Assay type in all cases: cell-based
A4-Fuk = assay: CellTiter-Glo proliferation assay (Example 6); design: key: **: tested but curve did not converge; settings: CD38 Mcl-1 ADCs and payload P1, 5 days
Procedure: (§1) Mcl-1 ADCs were tested on nine endogenous cancer cell lines and one isogenic cell line engineered to overexpress a target of interest. Six targets were assessed: HER2, BCMA, CD38, CD48, CD79b, and CD33.
(§2) Cell lines • HER2: HCC1954 (ATCC No. CRL-2338 cultured in RPMI-1640+10% FBS) and HCC2218 (ATCC No. CRL-2343 cultured in RPMI-1640+10% FBS). • BCMA: NCI-H929 (ATCC No. CRL-9068 cultured in RPMI-1640+10% FBS+0.05 mM 2-mercaptoethanol). • CD38: A4-Fuk (JCRB No. JCRB0097 cultured in RPMI-1640+10% FBS) and KMS-21 BM (JCRB No. JCRB1185 cultured in RPMI-1640+10% FBS). • CD48: NCI-H929 (ATCC No. CRL-9068 cultured in RPMI-1640+10% FBS+0.05 mM 2-mercaptoethanol), OPM-2 (DSMZ No. ACC-50 cultured in RPMI-1640+10% FBS) and AMO1 (DSMZ No. ACC-538 cultured in RPMI-1640+20% FBS). • CD79b: RS4;11 (ATCC No. CRL-1873 cultured in RPMI-1640+10% FBS). • CD33: MOLM-13 (DSMZ No. ACC-554 cultured in RPMI-1640+10% FBS) and an isogenic cell line, AMO1-CD33 clone D2. AMO1 cell line was transfected to generate a stable AMO1 cell line expressing the exogenous protein of interest, CD33, AMO1-CD33 clone D2 (cultured in RPMI-1640+20% FBS).
(§3) The ability of Mcl-1 ADCs to inhibit cell proliferation and survival was assessed using a Promega CellTiter-Glo® proliferation assay. Cell lines were cultured in media optimal for their growth at 5% CO2, 37° C. in a tissue culture incubator. Prior to seeding for the proliferation assay, the cells were split at least 2 days before the assay to ensure optimal growth density. On the day of seeding, adherent cells were lifted off tissue culture flasks using 0.25% trypsin. Cell viability and cell density were determined using a cell counter (Vi-Cell XR Cell Viability Analyzer, Beckman Coulter). […] Cells were seeded at a density of 1,000 cells per well in 45 μl of standard growth media. Plates were incubated at 5% CO2, 37° C. overnight in a tissue culture incubator. The next day, free Mcl-1 payload (P1), targeting Mcl-1 ADCs, and non-targeting isotype ADCs were prepared at 10× in standard growth media. The prepared drug treatments were then added to the cells resulting in final concentrations of 0.0005-500 nM and a final volume of 50 μl per well. Each drug concentration was tested in quadruplets. Plates were incubated at 5% CO2, 37° C. for 5 days in a tissue culture incubator, after which cell viability was assessed through the addition of 25 μl of CellTiter Glo® (Promega, Cat. No. G7573), a reagent which lyses cells and measures total adenosine triphosphate (ATP) content. Plates were incubated at room temperature for 10 minutes to stabilize luminescent signals prior to reading using a luminescence reader (EnVision Multilabel Plate Reader, PerkinElmer). […]

KMS-21 BM = assay: CellTiter-Glo proliferation assay (Example 6); design: key: **: tested but curve did not converge; settings: CD38 Mcl-1 ADCs and payload P1, 5 days
Procedure: as §1, §2, §3

hel = assay: In vitro ADC activity, AML cell lines, CellTiter-Glo (Example 20); settings: 5 days
hl60 = assay: as above; settings: hl60, 5 days
kasumi6 = assay: as above; settings: kasumi6, 5 days
ko52 = assay: as above; settings: ko52, 5 days
molm13 = assay: as above; settings: molm13, 5 days
ociaml5 = assay: as above; settings: ociaml5, 5 days
skm1 = assay: as above; settings: skm1, 5 days
various MM cell lines = assay: In vitro ADC activity, MM cell lines, CellTiter-Glo (Example 20, Table 39); settings: 5 days treatment; for Amax: in %

COc1ccccc1-c1nccc(COc2ccccc2C[C@@H](Oc2ncnc3sc(-c4ccc(F)cc4)c(-c4ccc(OCCN5CCN(C)CC5)c(Cl)c4C)c23)C(=O)O)n1 [P1, (2R)-2-[5-[3-chloro-2-methyl-4-[2-(4-methylpiperazin-1-yl)ethoxy]phenyl]-6-(4-fluorophenyl)thieno[2,3-d]pyrimidin-4-yl]oxy-3-[2-[[2-(2-methoxyphenyl)pyrimidin-4-yl]methoxy]phenyl]propanoic acid]
Amax A4FUK (A4-Fuk): **
IC50 (nM) A4FUK (A4-Fuk): **
Amax KMS21 BM (KMS-21 BM): **
IC50 (nM) KMS21 BM (KMS-21 BM): **
Amax (hel; unit assumed): 4%
GI50 (hel; Homo sapiens, 120 h): 6.09 µM
GI50 (hl60; Homo sapiens, HL-60, 120 h): 87 nM
Amax (hl60; in % (unit assumed)): −71
GI50 (kasumi6; 120 h): 4 nM
Amax (kasumi6; in % (unit assumed)): −96
GI50 (ko52; 120 h): 500 nM
Amax (ko52; in % (unit assumed)): −75
GI50 (molm13; Homo sapiens, MOLM-13, 120 h): 2 nM
Amax (molm13; in % (unit assumed)): −54
GI50 (ociaml5; Homo sapiens, OCI-AML-5, 120 h): 265 nM
Amax (ociaml5; unit assumed): 4%
GI50 (skm1; Homo sapiens, SKM-1, 120 h): 119 nM
Amax (skm1; in % (unit assumed)): −49
GI50 (various MM cell lines; 120 h, Ip1 cell line): 7 nM
GI50 (various MM cell lines; 120 h, u266b1 cell line): 283 nM
GI50 (various MM cell lines; Homo sapiens, AMO1, 120 h, amo1 cell line): 5 nM
GI50 (various MM cell lines; Homo sapiens, EJM, 120 h, ejm cell line): 61 nM
GI50 (various MM cell lines; Homo sapiens, KMS-11, 120 h, kms11 cell line): 98 nM
GI50 (various MM cell lines; Homo sapiens, KMS-12-BM, 120 h, kms12bm cell line): 11 nM
GI50 (various MM cell lines; Homo sapiens, L-363, 120 h, L363 cell line): 3 nM
GI50 (various MM cell lines; Homo sapiens, MOLP-8, 120 h, molp8 cell line): 1 nM
GI50 (various MM cell lines; Homo sapiens, NCI-H929, 120 h, h929 cell line): 1 nM
GI50 (various MM cell lines; Homo sapiens, OPM-2, 120 h, opm2 cell line): 1 nM
GI50 (various MM cell lines; Homo sapiens, RPMI-8226, 120 h, rpmi8226 cell line): 2 nM
GI50 (various MM cell lines; Homo sapiens, SK-MM-2, 120 h, skmm2 cell line): > 10000 nM
Amax (various MM cell lines; Ip1 cell line): −58
GI50 (various MM cell lines; KE-97, 120 h, ke97 cell line): 7910 nM
GI50 (various MM cell lines; KHM-1B, 120 h, khm1b cell line): 2 nM
GI50 (various MM cell lines; KMM-1, 120 h, kmm1 cell line): 154 nM
GI50 (various MM cell lines; KMS-20, 120 h, kms20 cell line): 8 nM
GI50 (various MM cell lines; KMS-21BM, 120 h, kms21bm cell line): 1 nM
GI50 (various MM cell lines; KMS-26, 120 h, kms26 cell line): 60 nM
GI50 (various MM cell lines; KMS-27, 120 h, kms27 cell line): 1 nM
GI50 (various MM cell lines; KMS-28BM, 120 h, kms28bm cell line): 6 nM
GI50 (various MM cell lines; KMS-34, 120 h, kms34 cell line): 498 nM
GI50 (various MM cell lines; Karpas-620, 120 h, karpas620 cell line): 205 nM
Amax (various MM cell lines; L363 cell line): −47
Amax (various MM cell lines; amo1 cell line): −20
Amax (various MM cell lines; ejm cell line): −93
Amax (various MM cell lines; h929 cell line): −74
Amax (various MM cell lines; karpas620 cell line): −43
Amax (various MM cell lines; ke97 cell line): 21
Amax (various MM cell lines; khm1b cell line): −84
Amax (various MM cell lines; kmm1 cell line): −67
Amax (various MM cell lines; kms11 cell line): −62
Amax (various MM cell lines; kms12bm cell line): −79
Amax (various MM cell lines; kms20 cell line): −88
Amax (various MM cell lines; kms21bm cell line): −76
Amax (various MM cell lines; kms26 cell line): −49
Amax (various MM cell lines; kms27 cell line): −89
Amax (various MM cell lines; kms28bm cell line): −42
Amax (various MM cell lines; kms34 cell line): −64
Amax (various MM cell lines; molp8 cell line): −74
Amax (various MM cell lines; opm2 cell line): −77
Amax (various MM cell lines; rpmi8226 cell line): −91
Amax (various MM cell lines; skmm2 cell line): 112
Amax (various MM cell lines; u266b1 cell line): −24
